Results from US8293278B2, “Compositions and methods for inhibiting reproduction in tadpole shrimp” (Fresno California State University, priority 2008, dated 2012).

What was measured:
tadpole shrimp [1] = assay: Inhibition of sexual development in tadpole shrimp in laboratory conditions; format: in vivo, Triops longicaudatus
From the text: As above, the dry base, the viscous additive, and the saline solution form the means for delivering the methyl farnesoate. In some embodiments, the composition may include a preparation comprising an effective amount of methyl farnesoate. In some embodiments, the composition can include a minimum of about 0.0001% methyl farnesoate by weight. In some embodiments, the composition can include a maximum of about 0.001% methyl farnesoate by weight. It has been determined that a concentration of as little as about 0.75 micrograms of methyl farnesoate per gram of the final composition is effective for inhibiting sexual development in tadpole shrimp in laboratory conditions. […] Thus, in some embodiments, compositions containing at least about […] micrograms of methyl farnesoate per gram of the final composition may be used to reduce sexual development in tadpole shrimp. However, it is to be appreciated that the percentage of methyl farnesoate by weight may be greater or less than these amounts in accordance with some embodiments of the present invention.

[2] = Chemical stability of methyl farnesoate (oxidation, heat during drying); format: physicochemical; conditions: exposure to temperatures above about 50 degrees Celsius during drying
From the text: Recent scientific studies have shown that the hormone methyl farnesoate [methyl-(2E,6E,10E)-3,7,11-trimethyldodecatri-2,6,10-eneoate] […] Because methyl farnesoate oxidizes quickly and therefore will not build up large concentrations in the soil, and because it is a fatty acid, it is not considered to be harmful to the environment or adversely affect crop production. However, it is for these same reasons that administration of methyl farnesoate is difficult to administer.
In some further embodiments, the particles once formed can be dried to have a moisture content of, for example, about 5% and about 18%. Drying the particles assist in the efficient packaging, distribution, and dispensing of the particles. During such drying, the particles should not be exposed to extreme heat, which could reduce methyl farnesoate concentrations. […] Thus, in some embodiments, the pellets may be dried at a temperature below about 50 degrees Celsius. In some embodiments, relatively lower temperature drying can be enhanced by circulating ambient air over the particles.

[3] = exposed to oxidizing agents in the environment; cited from earlier work
tadpole shrimp [4] = conditions: cited from earlier work

loss of methyl farnesoate concentration from the pellets on heating [2]: significant loss
Structure (SMILES): COC(=O)/C=C(\C)CC/C=C(\C)CCC=C(C)C [methyl farnesoate, methyl-(2E,6E,10E)-3,7,11-trimethyldodecatri-2,6,10-eneoate]
concentration of methyl farnesoate effective for inhibiting sexual development in tadpole shrimp (tadpole shrimp [1]): about 0.75 micrograms of methyl farnesoate per gram of the final composition | oxidative stability [3]: easily oxidized into farnesoic acid | effect on growth, development and gamete production in pests such as tadpole shrimp (tadpole shrimp [4]; recent scientific studies): inhibits growth, development, and gamete production | effect on sexual development of tadpole shrimp (tadpole shrimp [4]; studies): reduces sexual development
